Results from patent US20220091133A1, “METHODS AND ASSAYS FOR IMMUNE PHENOTYPING” (Washington University, priority 2020, published 2022).
Values joined by “and” are separate entries in the source; they are usually repeats but may differ in a detail not shown here. Equal entries are not always repeated. Starred links: 1 amine or outer side, 2 acyl side, 3 side chain; linkers in the order of their positions; H or OH if unused. Positions of bridges follow the written chain, without caps; N, C: chain ends. Non-standard residues stand in square brackets, D forms with d. Residues, ends and D or L forms follow the SMILES beside them. *: point of attachment. hTyr(3S-OH,4S-OH,3'-OSO3H) = N[C@H](C(=O)O)[C@H](O)[C@@H](O)c1ccc(O)c(OS(=O)(=O)O)c1; Orn(4R-OH,5R-OH) = O=C([C@H](C[C@@H](O)[C@@H](O)N[*:3])N[*:1])[*:2]; Pro(3S-OH,4S-Me) = C[C@H]1CN[C@H](C(=O)O)[C@H]1O; X1 = CCCCCOc1ccc(-c2cc(-c3ccc(C(=O)*)cc3)no2)cc1; Gln(3R-OH) = NC(=O)C[C@@H](O)[C@H](N)C(=O)O; Hyp = O=C(O)[C@@H]1C[C@@H](O)CN1

How the values were obtained:
[1] = tested on: Trichosporon asahii and Saksenaea species; experiment: Tissue, wound, blood and bone cultures of the fungal wound sepsis patient; format: in vivo, human; details: posaconazole, amphotericin B and micafungin together, before IL-7
Excerpt: They were aggressively treated with daily or alternating-day operative debridement, broad-spectrum parenteral and topical antibacterial and antifungal therapy. Antimicrobial therapy included ceftazidime, metronidazole, trimethoprim-sulfamethoxazole, micafungin, amphotericin B, and posaconazole (FIG. 29), as well as VERAFLO vac instillation of antimicrobials into the wound bed. The patient's polymicrobial soft tissue infection continued to advance and was accompanied by multisystem organ failure and shock. Over a 4-week period, they required debridement of >3000 cm^2 of skin, subcutaneous tissue, and muscle involving the entire perineum, bilateral thighs, buttocks, and circumferential abdominal wall (FIG. 28B).
Tissue histology also became negative for fungus at approximately the same time as tissue cultures (FIG. 28E).

mucormycosis = details: nivolumab (anti-PD-1) and IFN-γ together, Belgian bomb blast victim, reference 5; cited from earlier work
Saksenaea isolate = experiment: CLSI broth dilution antifungal susceptibility testing; details: Saksenaea isolate from patient wound, CLSI broth dilution reference method
[2] = tested on: peripheral blood mononuclear cells (T cell IFN-γ production); format: cell-based, human

Row | Compound | wound cultures for Trichosporon asahii and Saksenaea species despite triple antifungal therapy [1] | Drug sensitivities (Saksenaea isolate) [µg/mL] | also measured
1 | CCCCCOc1ccc(-c2cc(-c3ccc(C(=O)N[C@H]4C[C@@H](O)[C@@H](O)NC(=O)[C@@H]5[C@@H](O)[C@@H](C)CN5C(=O)[C@H]([C@H](O)CC(N)=O)NC(=O)[C@H]([C@H](O)[C@@H](O)c5ccc(O)c(OS(=O)(=O)O)c5)NC(=O)[C@@H]5C[C@@H](O)CN5C(=O)[C@H]([C@@H](C)O)NC4=O)cc3)no2)cc1 [micafungin] (X1-[Orn(4R-OH,5R-OH)]T[Hyp][hTyr(3S-OH,4S-OH,3'-OSO3H)][Gln(3R-OH)][Pro(3S-OH,4S-Me)]; lactam 1-C) | persistently positive | – | –
2 | nivolumab [reference compound] | – | – | outcome of immune-adjuvant therapy in refractory mucormycosis (mucormycosis): rapid clinical improvement, enhanced immune phenotypic markers, and fungal elimination
3 | CC[C@@H]([C@H](C)O)n1ncn(-c2ccc(N3CCN(c4ccc(OC[C@@H]5CO[C@@](Cn6cncn6)(c6ccc(F)cc6F)C5)cc4)CC3)cc2)c1=O [posaconazole] | persistently positive | 0.25 | –
4 | IFN-γ: interferon-γ given as immune-adjuvant therapy | – | – | outcome of immune-adjuvant therapy in refractory mucormycosis (mucormycosis): rapid clinical improvement, enhanced immune phenotypic markers, and fungal elimination
5 | C[C@@H]1[C@H](O)[C@@H](C)/C=C/C=C/C=C/C=C/C=C/C=C/C=C/[C@H](O[C@@H]2O[C@H](C)[C@@H](O)[C@H](N)[C@@H]2O)C[C@@H]2O[C@](O)(C[C@@H](O)C[C@@H](O)[C@H](O)CC[C@@H](O)C[C@@H](O)CC(=O)O[C@H]1C)C[C@H](O)[C@H]2C(=O)O [amphotericin B] | persistently positive | < 0.03 | –
6 | C[C@@H]1C[C@H]2[C@@H]3CCC4=CC(=O)C=C[C@]4(C)[C@@]3(F)[C@@H](O)C[C@]2(C)[C@@]1(O)C(=O)COP(=O)(O)O [dexamethasone, dexamethasone phosphate] | – | – | decrease in IFN-γ production (ELISpot total well intensity) [2]: 61% and 58%; reduction in the number of IFN-γ secreting cells [2]: 30% and 49%
7 | C[C@@H](c1nc(-c2ccc(C#N)cc2)cs1)[C@](O)(Cn1cncn1)c1cc(F)ccc1F [isavuconazole] | – | 1 | –
